# What was measured:
# Assay in all cases: GAL4-driven luciferase reporter assay in NIH3T3 cells
# Assay type in all cases: cell-based
# CfEcR-DEF mutant F48K = CfEcR-DEF mutant F48K (Choristoneura fumiferana, UniProt O77255, F331K)
# Protocol: (§1) This construct was prepared in the same way as in switch 1.1 above except wild-type CfEcR-DEF was replaced with mutant CfEcR-DEF comprising a ligand binding domain comprising a substitution mutation selected from Table 1 below.
# (§2) DNAs were transfected into mouse NIH3T3 cells (ATCC) as follows. Standard methods for culture and maintenance of the cells were followed. Cells were harvested and plated 96-well plates at 2,500 cells per well, in 50 μL of growth medium containing 10% fetal bovine serum (FBS). Twenty-four hours later, the cells were treated with 35 μL of serum-free growth medium containing either dimethylsulfoxide (DMSO; control) or a DMSO solution of ligand. The cells were then transfected using Superfect (Qiagen Inc.) transfection reagent. For each well, 0.625 μL of Superfect was mixed with 14.2 μL of serum-free growth medium. 0.16 μg of reporter construct and 0.04 μg of each receptor construct were added to the transfection reagent mix. The contents of the transfection mix were mixed in a vortex mixer and let stand at room temperature for 30 minutes. At the end of incubation, 15 μL of transfection mix was added to the cells. The cells were maintained at 37° C. and 5% CO2 for 48 hours in 5% FBS.
# (§3) Reporter Assays: Cells were harvested 40 hours after adding ligands. 125 μL of passive lysis buffer (part of Dual-Luciferase reporter assay system from Promega Corporation) were added to each well of the […] plate. The plates were placed on a rotary shaker for 15 minutes. Twenty μL of lysate were assayed. Luciferase activity was measured using Dual-Luciferase reporter assay system from Promega Corporation following the manufacturer's instructions. Fold induction (FI) activities were calculated by dividing relative light units (“RLU”) in ligand treated cells with RLU in DMSO treated cells (untreated control).
# CfEcR-DEF mutant I51M = CfEcR-DEF mutant I51M (Choristoneura fumiferana, UniProt O77255, I334M)
# Protocol: as §1, §2, §3
# CfEcR-DEF mutant L132E = CfEcR-DEF mutant L132E (Choristoneura fumiferana, UniProt O77255, L415E)
# Protocol: as §1, §2, §3
# CfEcR-DEF mutant L223K = CfEcR-DEF mutant L223K (Choristoneura fumiferana, UniProt O77255, L506K)
# Protocol: as §1, §2, §3
# CfEcR-DEF mutant L223R = CfEcR-DEF mutant L223R (Choristoneura fumiferana, UniProt O77255, L506R)
# Protocol: as §1, §2, §3
# CfEcR-DEF mutant L223Y = CfEcR-DEF mutant L223Y (Choristoneura fumiferana, UniProt O77255, L506Y)
# Protocol: as §1, §2, §3
# CfEcR-DEF mutant L234R = CfEcR-DEF mutant L234R (Choristoneura fumiferana, UniProt O77255, L517R)
# Protocol: as §1, §2, §3
# CfEcR-DEF mutant L234W = CfEcR-DEF mutant L234W (Choristoneura fumiferana, UniProt O77255, L517W)
# Protocol: as §1, §2, §3
# CfEcR-DEF mutant M125G = CfEcR-DEF mutant M125G (Choristoneura fumiferana, UniProt O77255, M408G)
# Protocol: as §1, §2, §3
# CfEcR-DEF mutant M125I = CfEcR-DEF mutant M125I (Choristoneura fumiferana, UniProt O77255, M408I)
# Protocol: as §1, §2, §3
# CfEcR-DEF mutant M125N = CfEcR-DEF mutant M125N (Choristoneura fumiferana, UniProt O77255, M408N)
# Protocol: as §1, §2, §3
# CfEcR-DEF mutant M219K = CfEcR-DEF mutant M219K (Choristoneura fumiferana, UniProt O77255, M502K)
# Protocol: as §1, §2, §3
# CfEcR-DEF mutant M219W = CfEcR-DEF mutant M219W (Choristoneura fumiferana, UniProt O77255, M502W)
# Protocol: as §1, §2, §3
# CfEcR-DEF mutant M219Y = CfEcR-DEF mutant M219Y (Choristoneura fumiferana, UniProt O77255, M502Y)
# Protocol: as §1, §2, §3
# CfEcR-DEF mutant T52G = CfEcR-DEF mutant T52G (Choristoneura fumiferana, UniProt O77255, T335G)
# Protocol: as §1, §2, §3
# CfEcR-DEF mutant T52M = CfEcR-DEF mutant T52M (Choristoneura fumiferana, UniProt O77255, T335M)
# Protocol: as §1, §2, §3
# CfEcR-DEF mutant T52Q = CfEcR-DEF mutant T52Q (Choristoneura fumiferana, UniProt O77255, T335Q)
# Protocol: as §1, §2, §3
# CfEcR-DEF mutant T52W = CfEcR-DEF mutant T52W (Choristoneura fumiferana, UniProt O77255, T335W)
# Protocol: as §1, §2, §3
# CfEcR-DEF mutant W238L = CfEcR-DEF mutant W238L (Choristoneura fumiferana, UniProt O77255, W521L)
# Protocol: as §1, §2, §3
# CfEcR-DEF mutant W238M = CfEcR-DEF mutant W238M (Choristoneura fumiferana, UniProt O77255, W521M)
# Protocol: as §1, §2, §3
# [1] = NIH3T3, 40 h, read-out: Rel Max FI
# [2] = NIH3T3, 40 h, read-out: Rel MaxFI
# CfEcR-DEF mutant L223K, sequence (P28702 298-449): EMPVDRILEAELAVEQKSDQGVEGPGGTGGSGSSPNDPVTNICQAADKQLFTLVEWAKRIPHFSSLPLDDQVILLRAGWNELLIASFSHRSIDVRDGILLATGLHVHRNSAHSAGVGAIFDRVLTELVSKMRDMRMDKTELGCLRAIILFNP
# CfEcR-DEF mutant L223K, sequence (O77255 entry or part of it L506K): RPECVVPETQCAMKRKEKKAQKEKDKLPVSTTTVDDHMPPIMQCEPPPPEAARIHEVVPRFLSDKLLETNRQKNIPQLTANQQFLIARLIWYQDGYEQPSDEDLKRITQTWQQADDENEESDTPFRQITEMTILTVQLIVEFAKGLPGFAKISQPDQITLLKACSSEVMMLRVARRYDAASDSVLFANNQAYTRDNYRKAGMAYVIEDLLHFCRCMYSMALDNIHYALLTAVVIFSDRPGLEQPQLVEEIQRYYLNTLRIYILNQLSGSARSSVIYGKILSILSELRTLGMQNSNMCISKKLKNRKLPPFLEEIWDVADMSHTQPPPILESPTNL
# CfEcR-DEF mutant T52G, sequence (O77255 entry or part of it T335G): as the sequence (O77255 entry or part of it L506K) above, with T129G, K300L counted along it
# CfEcR-DEF mutant T52G, sequence (P28702 298-449, further chain): as the sequence (P28702 298-449) above
# CfEcR-DEF mutant L223R, sequence (O77255 entry or part of it L506R): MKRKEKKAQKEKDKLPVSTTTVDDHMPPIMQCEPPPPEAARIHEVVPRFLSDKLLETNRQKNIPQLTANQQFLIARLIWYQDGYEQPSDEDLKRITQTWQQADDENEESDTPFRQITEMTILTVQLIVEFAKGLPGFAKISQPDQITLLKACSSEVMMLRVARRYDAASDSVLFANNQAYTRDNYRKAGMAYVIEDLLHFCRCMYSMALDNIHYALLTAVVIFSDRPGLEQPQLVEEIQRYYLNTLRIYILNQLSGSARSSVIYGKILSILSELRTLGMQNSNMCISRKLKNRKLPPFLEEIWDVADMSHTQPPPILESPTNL
# CfEcR-DEF mutant L223R, sequence (P28702 299-449, further chain): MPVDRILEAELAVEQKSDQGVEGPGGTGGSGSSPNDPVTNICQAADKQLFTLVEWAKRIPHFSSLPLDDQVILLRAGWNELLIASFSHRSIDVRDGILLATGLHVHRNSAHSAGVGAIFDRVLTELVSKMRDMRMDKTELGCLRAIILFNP
# CfEcR-DEF mutant L234R, sequence (O77255 entry or part of it L517R): as the sequence (O77255 entry or part of it L506K) above, with K300L, L311R counted along it
# CfEcR-DEF mutant L234R, sequence (P28702 299-449, further chain): as the sequence (P28702 299-449, further chain) above
# CfEcR-DEF mutant T52W, sequence (O77255 entry or part of it T335W): as the sequence (O77255 entry or part of it L506R) above, with T117W, R288L counted along it
# CfEcR-DEF mutant T52W, sequence (P28702 299-449, further chain): as the sequence (P28702 299-449, further chain) above
# CfEcR-DEF mutant F48K, sequence (O77255 entry or part of it F331K): as the sequence (O77255 entry or part of it L506R) above, with F113K, R288L counted along it
# CfEcR-DEF mutant F48K, sequence (P28702 299-449, further chain): as the sequence (P28702 299-449, further chain) above
# CfEcR-DEF mutant T52M, sequence (O77255 entry or part of it T335M): as the sequence (O77255 entry or part of it L506K) above, with T129M, K300L counted along it
# CfEcR-DEF mutant T52M, sequence (P28702 298-449, further chain): as the sequence (P28702 298-449) above
# CfEcR-DEF mutant L234W, sequence (O77255 entry or part of it L517W): as the sequence (O77255 entry or part of it L506K) above, with K300L, L311W counted along it
# CfEcR-DEF mutant L234W, sequence (P28702 299-449, further chain): as the sequence (P28702 299-449, further chain) above
# CfEcR-DEF mutant M219K, sequence (P28702 299-449): as the sequence (P28702 299-449, further chain) above
# CfEcR-DEF mutant M219K, sequence (O77255 entry or part of it M502K): as the sequence (O77255 entry or part of it L506K) above, with M296K, K300L counted along it
smiles,measurement,setting,value
"CCc1c(OC)cccc1C(=O)NN(C(=O)c1cc(C)cc(C)c1)C(C)(C)C [RG-102240, N-(2-ethyl-3-methoxybenzoyl)-N′-(3,5-dimethylbenzoyl)-N′-tert-butylhydrazine]",EC50,CfEcR-DEF mutant F48K,11.1 µM
same,Emax,CfEcR-DEF mutant F48K; [1],100%
same,EC50,CfEcR-DEF mutant I51M,3.94 µM
same,Emax,CfEcR-DEF mutant I51M; [1],100%
same,EC50,CfEcR-DEF mutant L132E,0.41 µM
same,Emax,CfEcR-DEF mutant L132E; [1],100%
same,EC50,CfEcR-DEF mutant L223K,3.93 µM
same,Emax,CfEcR-DEF mutant L223K; [1],100%
same,EC50,CfEcR-DEF mutant L223R,8.69 µM
same,Emax,CfEcR-DEF mutant L223R; [1],100%
same,EC50,CfEcR-DEF mutant L223Y,3.15 µM
same,Emax,CfEcR-DEF mutant L223Y; [1],100%
same,EC50,CfEcR-DEF mutant L234R,17.1 µM
same,Emax,CfEcR-DEF mutant L234R; [1],100%
same,EC50,CfEcR-DEF mutant L234W,11.5 µM
same,Emax,CfEcR-DEF mutant L234W; [1],100%
same,EC50,CfEcR-DEF mutant M125G,14.2 µM
same,Emax,CfEcR-DEF mutant M125G; [1],100%
same,EC50,CfEcR-DEF mutant M125I,1.36 µM
same,Emax,CfEcR-DEF mutant M125I; [1],100%
same,EC50,CfEcR-DEF mutant M125N,9.88 µM
same,Emax,CfEcR-DEF mutant M125N; [1],100%
same,EC50,CfEcR-DEF mutant M219K,2.9 µM
same,Emax,CfEcR-DEF mutant M219K; [1],100%
same,EC50,CfEcR-DEF mutant M219W,3.35 µM
same,Emax,CfEcR-DEF mutant M219W; [1],100%
same,EC50,CfEcR-DEF mutant M219Y,0.82 µM
same,Emax,CfEcR-DEF mutant M219Y; [1],100%
same,EC50,CfEcR-DEF mutant T52G,3.52 µM
same,Emax,CfEcR-DEF mutant T52G; [1],100%
same,EC50,CfEcR-DEF mutant T52M,6.74 µM
same,Emax,CfEcR-DEF mutant T52M; [2],100%
same,EC50,CfEcR-DEF mutant T52Q,2.95 µM
same,Emax,CfEcR-DEF mutant T52Q; [1],100%
same,EC50,CfEcR-DEF mutant T52W,18.3 µM
same,Emax,CfEcR-DEF mutant T52W; [1],100%
same,EC50,CfEcR-DEF mutant W238L,11.1 µM
same,Emax,CfEcR-DEF mutant W238L; [1],100%
same,EC50,CfEcR-DEF mutant W238M,10.5 µM
same,Emax,CfEcR-DEF mutant W238M; [2],100%
